Reference: US11465990B2, “Heterocyclic antiestrogens” (SUN PHARMA ADVANCED RESEARCH COMPANY LIMITED, priority 2015, dated 2022)

Test system: MCF-7 cells
Assay: MCF-7 cell growth inhibition assay
Assay type: cell-based
Conditions: Homo sapiens, MCF7, 120 h, MCF-7 cells plated in presence of estradiol (1 nM), five days incubation, Presto Blue viability
Method: MCF-7 Cell Growth Inhibition Assay
MCF-7 cells were plated in 96 well plate in the presence of estradiol (1 nM) and incubated overnight. After 24 hours test compound was added at various concentrations and incubated for five days. On the fifth day, cell viability was evaluated using Presto Blue Cell Viability Reagent. Percentage growth inhibition was calculated as follows: 100−[(O.D. of sample)*100/O.D. of vehicle control] wherein O.D. is optical density.

Compound	inhibition at 1 µM [%]
CNC/C=C\c1ccc(C2Oc3ccc(O)cc3C(C)=C2c2cccc(O)c2)cc1 (stereo not shown) [Compound 1]	64.1
CC1=C(c2cccc(O)c2)C(c2ccc(/C=C\CN(C)C)cc2)Oc2ccc(O)cc21 (stereo not shown) [Compound 2]	62.2
CCCCCCCCCCCCNC/C=C\c1ccc(C2Oc3ccc(O)cc3C(C)=C2c2cccc(O)c2)cc1 (stereo not shown) [Compound 3]	68.5
CCCCCCCCCCCCNC/C=C/c1ccc(C2Oc3ccc(O)cc3C(C)=C2c2cccc(O)c2)cc1 (stereo not shown) [Compound 4]	56.2
CC1=C(c2cccc(O)c2)C(c2ccc(/C=C\CNCCN(C)C)cc2)Oc2ccc(O)cc21 (stereo not shown) [Compound 6]	55.5
CC1=C(c2cccc(O)c2)C(c2ccc(/C=C\CNCCCCCCCCCSCCCC(F)(F)C(F)(F)F)cc2)Oc2ccc(O)cc21 (stereo not shown) [Compound 7, 3-(3-hydroxyphenyl)-4-methyl-2-(4-{(Z)-3-[9-(4,4,5,5,5-pentafluoropentylsulfanyl)nonylamino]propenyl}phenyl)-2H-chromen-6-ol]	85.3
CC1=C(c2cccc(O)c2)C(c2ccc(/C=C/CNCCCCCCCCCSCCCC(F)(F)C(F)(F)F)cc2)Oc2ccc(O)cc21 (stereo not shown) [Compound 8]	59.1
CC1=C(c2cccc(O)c2)C(c2ccc(/C=C\CN3CC[C@@H](C)C3)cc2)Oc2ccc(O)cc21 (stereo partly shown) [Compound 9]	79.8
CC1=C(c2cccc(O)c2)C(c2ccc(/C=C/CN3CC[C@@H](C)C3)cc2)Oc2ccc(O)cc21 (stereo partly shown) [Compound 10]	52.3
CC1=C(c2cccc(O)c2)C(c2ccc(/C=C\CN3CCCCC3)cc2)Oc2ccc(O)cc21 (stereo not shown) [Compound 11, 3-(3-hydroxyphenyl)-4-methyl-2-[4-((Z)-3-piperidin-1-ylpropenyl)phenyl]-2H-chromen-6-ol]	65.1
CC1=C(c2cccc(O)c2)C(c2ccc(/C=C/CN3CCCCC3)cc2)Oc2ccc(O)cc21 (stereo not shown) [Compound 12, 3-(3-hydroxyphenyl)-4-methyl-2-[4-((E)-3-piperidin-1-ylpropenyl)phenyl]-2H-chromen-6-ol]	57.6
CC1=C(c2cccc(O)c2)C(c2ccc(/C=C\CN3CCOCC3)cc2)Oc2ccc(O)cc21 (stereo not shown) [Compound 13]	5.5
CC1=C(c2cccc(O)c2)C(c2ccc(/C=C\CN3CCN(C)CC3)cc2)Oc2ccc(O)cc21 (stereo not shown) [Compound 14]	79.1
CC1=C(c2cccc(O)c2)C(c2ccc(/C=C/CN3CCN(C)CC3)cc2)Oc2ccc(O)cc21 (stereo not shown) [Compound 15]	52.2
CC1=C(c2cccc(O)c2)C(c2ccc(/C=C\CN3CCC[C@@H](N)C3)cc2)Oc2ccc(O)cc21 (stereo partly shown) [Compound 16]	56.7
CC1=C(c2cccc(O)c2)C(c2ccc(/C=C\CN3CCN(CCO)CC3)cc2)Oc2ccc(O)cc21 (stereo not shown) [Compound 17]	43.4
CC1=C(c2cccc(OC(=O)C(C)(C)C)c2)C(c2ccc(/C=C\CN3CC[C@@H](C)C3)cc2)Oc2ccc(OC(=O)C(C)(C)C)cc21 (stereo partly drawn) [Compound 19, 2,2-Dimethylpropionic Acid 3-[3-(2,2-dimethylpropionyloxy)phenyl]-4-methyl-2-{4-[(Z)-3-((R)-3-methylpyrrolidin-1-yl)propenyl]phenyl}-2H-chromen-6-yl ester]	29.4
COc1cccc(C2=C(C)c3cc(OC)ccc3OC2c2ccc(/C=C\CN3CC[C@@H](C)C3)cc2)c1 (stereo partly drawn) [Compound 20, (R)-1-((Z)-3-{4-[6-methoxy-3-(3-methoxyphenyl)-4-methyl-2H-chromen-2-yl]phenyl}allyl)-3-methylpyrrolidine]	15.4
CNCC#Cc1ccc(C2Oc3ccc(O)cc3C(C)=C2c2cccc(O)c2)cc1 (stereo not shown) [Compound 21]	60.1

Compound	inhibition at 1 µM [%]
CCCCCCCCCCCCNCC#Cc1ccc(C2Oc3ccc(O)cc3C(C)=C2c2cccc(O)c2)cc1 (stereo not shown) [Compound 22]	29
CNC/C(C)=C/CCC=C(C)C [Compound 23]	36.8
CC1=C(c2cccc(O)c2)C(c2ccc(C#CCN3CC[C@@H](C)C3)cc2)Oc2ccc(O)cc21 (stereo partly shown) [Compound 24]	62.5
CC1=C(c2cccc(O)c2)C(c2ccc(C#CCN3CCCCC3)cc2)Oc2ccc(O)cc21 (stereo not shown) [Compound 25, 3-(3-hydroxyphenyl)-4-methyl-2-[4-(3-piperidin-1-yl-prop-1-ynyl)phenyl]-2H-chromen-6-ol]	42.5
CC1=C(c2cccc(O)c2)C(c2ccc(C#CCN3CCN(C)CC3)cc2)Oc2ccc(O)cc21 (stereo not shown) [Compound 26]	55.2
CC1=C(c2cccc(O)c2)C(c2ccc(C#CCCN3CCN(C)CC3)cc2)Oc2ccc(O)cc21 (stereo not shown) [Compound 27]	28.8
CCCNC1CCN(C)C1 (stereo not shown) [Compound 31]	19.9
CC1=C(c2cccc(O)c2)C(c2ccc(/C=C/CN3CCSCC3)cc2)Oc2ccc(O)cc21 (stereo not shown) [Compound 33]	22.8
CC1=C(c2cccc(O)c2)C(c2ccc(/C=C\CN3CCC(C)CC3)cc2)Oc2ccc(O)cc21 (stereo not shown) [Compound 34]	35
CCCCCCCCCNC/C=C/c1ccc(C2Oc3ccc(O)cc3C(C)=C2c2cccc(O)c2)cc1 (stereo not shown) [Compound 35]	68.6
CC1=C(c2cccc(O)c2)C(c2ccc(/C=C\CNCCCCCCCCCF)cc2)Oc2ccc(O)cc21 (stereo not shown) [Compound 38]	49.9
CC1=C(c2cccc(O)c2)C(c2ccc(/C=C/CNCCCCCCCCCF)cc2)Oc2ccc(O)cc21 (stereo not shown) [Compound 39, 2-{4-[(E)-3-(9-Fluorononylamino)propenyl]phenyl}-3-(3-hydroxyphenyl)-4-methyl-2H-chromen-6-ol]	89.7
CC1=C(c2cccc(O)c2)C(c2ccc(/C=C\C(C)N3CCCC3)cc2)Oc2ccc(O)cc21 (stereo not shown) [Compound 40]	29.3
CC1=C(c2cccc(O)c2)C(c2ccc(/C=C/CNCCCCCCCCCCF)cc2)Oc2ccc(O)cc21 (stereo not shown) [Compound 41]	77.6
CC1=C(c2cccc(O)c2)C(c2ccc(C#CCNCCCCCCCCCF)cc2)Oc2ccc(O)cc21 (stereo not shown) [Compound 42]	62
CC1=C(c2cccc(O)c2)C(c2ccc(/C=C\CNCCCCCCCCCCF)cc2)Oc2ccc(O)cc21 (stereo not shown) [Compound 43]	47.9
CC1=C(c2cccc(O)c2)C(c2ccc(/C=C/CNCCCCCCCCC(F)F)cc2)Oc2ccc(O)cc21 (stereo not shown) [Compound 44]	67.2
CC1=C(c2cccc(O)c2)C(c2ccc(/C=C\CNCCCCCCCCC(F)F)cc2)Oc2ccc(O)cc21 (stereo not shown) [Compound 46]	88.6
COc1cccc(C2=C(C)c3cc(O)ccc3OC2c2ccc(/C=C/CNCCCCCCCCCF)cc2)c1 (stereo not shown) [Compound 47]	67.4

Compound	inhibition at 1 µM [%]
CC1=C(c2cccc(O)c2)C(c2ccc(/C=C\CN(C)CCCCCCCCCF)cc2)Oc2ccc(O)cc21 (stereo not shown) [Compound 48]	58.9
CC1=C(c2cccc(O)c2)C(c2ccc(/C=C/CNCCCCCCCCF)cc2)Oc2ccc(O)cc21 (stereo not shown) [Compound 49]	67.3
CC1=C(c2cccc(O)c2)C(c2ccc(/C=C\CNCCCCCCCCF)cc2)Oc2ccc(O)cc21 (stereo not shown) [Compound 50]	57.3
CC1=C(c2cccc(O)c2)C(c2ccc(C#CCNCCCCCCCCF)cc2)Oc2ccc(O)cc21 (stereo not shown) [Compound 51]	61.1
CC1=C(c2cccc(O)c2)C(c2ccc(C#CCNCCCCCCCCCCF)cc2)Oc2ccc(O)cc21 (stereo not shown) [Compound 52]	74.3
CC1=C(c2cccc(O)c2)C(c2ccc(C#CCN(C)CCCCCCCCCF)cc2)Oc2ccc(O)cc21 (stereo not shown) [Compound 53]	38.6
CC1=C(c2cccc(O)c2)C(c2ccc(C#CCNCCCCCCCCC(F)F)cc2)Oc2ccc(O)cc21 (stereo not shown) [Compound 54]	67.5
CC1=C(c2cccc(O)c2)C(c2ccc(C#CCN3CCC(F)(F)C3)cc2)Oc2ccc(O)cc21 (stereo not shown) [Compound 56]	44.9
CC1=C(c2cccc(O)c2)C(c2ccc(/C=C\CN3CCC(F)(F)C3)cc2)Oc2ccc(O)cc21 (stereo not shown) [Compound 57]	24.3
CC1=C(c2cccc(O)c2)C(c2ccc(/C=C/CN3CCC(F)(F)C3)cc2)Oc2ccc(O)cc21 (stereo not shown) [Compound 58]	37.9
CC1=C(c2cccc(O)c2)C(c2ccc(/C=C/CN3CC[C@@H](CF)C3)cc2)Oc2ccc(O)cc21 (stereo partly shown) [Compound 59]	73.5
CC1=C(c2cccc(O)c2)C(c2ccc(/C=C/CN3CC[C@@H](CO)C3)cc2)Oc2ccc(O)cc21 (stereo partly shown) [Compound 60]	55
CC1=C(c2cccc(O)c2)C(c2ccc(C#CCNCCCCOCCCCF)cc2)Oc2ccc(O)cc21 (stereo not shown) [Compound 61]	39.3
CC1=C(c2cccc(O)c2)C(c2ccc(/C=C\CNCCCCOCCCCF)cc2)Oc2ccc(O)cc21 (stereo not shown) [Compound 62]	53.1
CC1=C(c2cccc(O)c2)C(c2ccc(/C=C/CNCCCCOCCCCF)cc2)Oc2ccc(O)cc21 (stereo not shown) [Compound 63]	41.8
CC1=C(c2cccc(O)c2)C(c2ccc(C#CCN3CC[C@@H](CF)C3)cc2)Oc2ccc(O)cc21 (stereo partly shown) [Compound 64]	47.2
CC1=C(c2cccc(O)c2)C(c2ccc(/C=C/CN3CCC(C(F)(F)F)C3)cc2)Oc2ccc(O)cc21 (stereo not shown) [Compound 65]	55.4
CC1=C(c2cccc(O)c2)C(c2ccc(/C=C\CN3CCC(C(F)(F)F)C3)cc2)Oc2ccc(O)cc21 (stereo not shown) [Compound 66]	12.9

Same assay, conditions: at 1 μM; MCF-7 cells plated in presence of estradiol (1 nM), five days incubation, Presto Blue viability

Compound	% inhibition [%]
3-(3-Methoxy phenyl)-4-methyl-2-{4-[(Z)-3-((R)-3-methyl pyrrolidin-1-yl)propenyl]phenyl}-2H-chromen-6-ol [Compound 28]	55.9
CCCNC1CCN(C)C1 (stereo not shown) [Compound 32]	27.4
CCCCCCCCCNC/C=C\c1ccc(C2Oc3ccc(O)cc3C(C)=C2c2cccc(O)c2)cc1 (stereo not shown) [Compound 37]	57.2
CC1=C(c2cccc(O)c2)C(c2ccc(/C=C/CN(C)CCCCCCCCCF)cc2)Oc2ccc(O)cc21 (stereo not shown) [Compound 45]	71.4
CC1=C(c2cccc(O)c2)C(c2ccc(/C=C\CN3CC[C@@H](CF)C3)cc2)Oc2ccc(O)cc21 (stereo partly shown) [Compound 55]	67.1
